Data set [1] deals with Mus musculus. The data set is described as follows: Toxicity in mouse L1210 cells allografted BDF1 mouse assessed as reduction in body weight at 400 mg/kg administered on day 1 followed by 3 injections with 4 day interval. It counts as organism-based. As to conditions: in vivo, 96 h. Also on record: dose 400 mg/kg.
For data set [2], the system named is Mus musculus. The data set is described as follows: Toxicity in mouse L1210 cells allografted BDF1 mouse assessed as reduction in body weight at 200 mg/kg administered on day 1 followed by 3 injections with 4 day interval. It is filed as organism-based. Also on record: dose 200 mg/kg. As to conditions: in vivo, 96 h.
Data set [3] has as its system Mus musculus. Put plainly: Toxicity in mouse L1210 cells allografted BDF1 mouse assessed as reduction in body weight at 100 mg/kg administered on day 1 followed by 3 injections with 4 day interval. It is filed as organism-based. Details: dose 100 mg/kg. As to conditions: in vivo, 96 h.
Data set [4] has as its system L1210. Put plainly: Antitumor activity against mouse L1210 cells allografted in mouse assessed as survival at 400 mg/kg administered on day 1 followed by 3 injections with 4 day interval. It is filed as functional, organism-based. Also on record: dose 400 mg/kg.
The subject of data set [5] is L1210. Put plainly: Antitumor activity against mouse L1210 cells allografted in mouse assessed as survival at 200 mg/kg administered on day 1 followed by 3 injections with 4 day interval. It counts as functional, organism-based. Also on record: dose 200 mg/kg.
Data set [6] has as its system L1210. The data set is described as follows: Antitumor activity against mouse L1210 cells allografted in mouse assessed as survival at 100 mg/kg administered on day 1 followed by 3 injections with 4 day interval. It is filed as functional, organism-based. Also on record: dose 100 mg/kg.
The subject of data set [7] is L1210. Put plainly: Antitumor activity against mouse L1210 cells allografted in mouse assessed as increase in survival at 400 mg/kg administered on day 1 followed by 3 injections with 4 day interval relative to control. It counts as functional.
Data set [8] relates to L1210. Put plainly: Antitumor activity against mouse L1210 cells allografted in mouse assessed as increase in survival at 200 mg/kg administered on day 1 followed by 3 injections with 4 day interval relative to control. It counts as functional.
The subject of data set [9] is L1210. Put plainly: Antitumor activity against mouse L1210 cells allografted in mouse assessed as increase in survival at 100 mg/kg administered on day 1 followed by 3 injections with 4 day interval relative to control. It is filed as functional.
For data set [10], the system named is Mus musculus. The data set is described as follows: Toxicity in mouse L1210 cells allografted BDF1 mouse assessed as reduction in body weight at 120 mg/kg administered on day 1 followed by 5 injections with 1 day interval. As to conditions: in vivo, 24 h. Also on record: dose 120 mg/kg. It is filed as organism-based.
In data set [11] the test system is Mus musculus. The data set is described as follows: Toxicity in mouse L1210 cells allografted BDF1 mouse assessed as reduction in body weight at 80 mg/kg administered on day 1 followed by 5 injections with 1 day interval. It counts as organism-based. Details: dose 80 mg/kg. Particulars: in vivo, 24 h.
Data set [12] deals with Mus musculus. The data set is described as follows: Toxicity in mouse L1210 cells allografted BDF1 mouse assessed as reduction in body weight at 53 mg/kg administered on day 1 followed by 5 injections with 1 day interval. It is filed as organism-based. Also on record: dose 53 mg/kg. As to conditions: in vivo, 24 h.
Data set [13] relates to L1210. The data set is described as follows: Antitumor activity against mouse L1210 cells allografted in BDF1 mouse assessed as survival at 180 mg/kg administered on day 1 followed by 5 injections with 1 day interval. It counts as functional, organism-based. Details: dose 180 mg/kg.
Data set [14] relates to L1210. Put plainly: Antitumor activity against mouse L1210 cells allografted in BDF1 mouse assessed as survival at 125 mg/kg administered on day 1 followed by 5 injections with 1 day interval. It counts as functional, organism-based. Also on record: dose 125 mg/kg.
Data set [15] deals with L1210. The data set is described as follows: Antitumor activity against mouse L1210 cells allografted in BDF1 mouse assessed as survival at 80 mg/kg administered on day 1 followed by 5 injections with 1 day interval. It counts as functional, organism-based. Also on record: dose 80 mg/kg.
The subject of data set [16] is L1210. The data set is described as follows: Antitumor activity against mouse L1210 cells allografted in BDF1 mouse assessed as survival at 53 mg/kg administered on day 1 followed by 5 injections with 1 day interval. It counts as functional, organism-based. Details: dose 53 mg/kg.
Data set [17] deals with L1210. Put plainly: Antitumor activity against mouse L1210 cells allografted in BDF1 mouse assessed as increase in survival at 180 mg/kg administered on day 1 followed by 5 injections with 1 day interval relative to control. It counts as functional.
Data set [18] relates to L1210. The data set is described as follows: Antitumor activity against mouse L1210 cells allografted in BDF1 mouse assessed as increase in survival at 125 mg/kg administered on day 1 followed by 5 injections with 1 day interval relative to control. It counts as functional.
For data set [19], the system named is L1210. Put plainly: Antitumor activity against mouse L1210 cells allografted in BDF1 mouse assessed as increase in survival at 120 mg/kg administered on day 1 followed by 5 injections with 1 day interval relative to control. It is filed as functional.
Data set [20] concerns L1210. The data set is described as follows: Antitumor activity against mouse L1210 cells allografted in BDF1 mouse assessed as increase in survival at 80 mg/kg administered on day 1 followed by 5 injections with 1 day interval relative to control. It counts as functional.
Data set [21] deals with L1210. The data set is described as follows: Antitumor activity against mouse L1210 cells allografted in BDF1 mouse assessed as increase in survival at 53 mg/kg administered on day 1 followed by 5 injections with 1 day interval relative to control. It is filed as functional.
Data set [22] deals with Mus musculus. Put plainly: Toxicity in mouse L1210 cells allografted BDF1 mouse assessed as reduction in body weight at 180 mg/kg administered on day 1 followed by 5 injections with 1 day interval. It counts as organism-based. As to conditions: in vivo, 24 h. Also on record: dose 180 mg/kg.
The test system of data set [23] is Mus musculus. The data set is described as follows: Toxicity in mouse L1210 cells allografted BDF1 mouse assessed as reduction in body weight at 125 mg/kg administered on day 1 followed by 5 injections with 1 day interval. It is filed as organism-based. Details: dose 125 mg/kg. As to conditions: in vivo, 24 h.
Data set [24] has as its system Mus musculus. Put plainly: Toxicity in mouse L1210 cells allografted mouse assessed as reduction in body weight at 200 mg/kg administered on day 1 followed by 5 injections with 1 day interval. It is filed as organism-based. Details: dose 200 mg/kg. As to conditions: in vivo, 24 h.
The test system of data set [25] is Mus musculus. Put plainly: Toxicity in mouse L1210 cells allografted mouse assessed as reduction in body weight at 100 mg/kg administered on day 1 followed by 5 injections with 1 day interval. It is filed as organism-based. Particulars: in vivo, 24 h. Details: dose 100 mg/kg.
Data set [26] has as its system Mus musculus. The data set is described as follows: Toxicity in mouse L1210 cells allografted mouse assessed as reduction in body weight at 50 mg/kg administered on day 1 followed by 5 injections with 1 day interval. It counts as organism-based. Details: dose 50 mg/kg. Particulars: in vivo, 24 h.
The subject of data set [27] is L1210. The data set is described as follows: Antitumor activity against mouse L1210 cells allografted in mouse assessed as survival at 200 mg/kg administered on day 1 followed by 5 injections with 1 day interval. Details: dose 200 mg/kg. It is filed as functional, organism-based.
The subject of data set [28] is L1210. The data set is described as follows: Antitumor activity against mouse L1210 cells allografted in mouse assessed as survival at 100 mg/kg administered on day 1 followed by 5 injections with 1 day interval. It is filed as functional, organism-based. Also on record: dose 100 mg/kg.
The test system of data set [29] is L1210. Put plainly: Antitumor activity against mouse L1210 cells allografted in mouse assessed as survival at 50 mg/kg administered on day 1 followed by 5 injections with 1 day interval. It counts as functional, organism-based. Details: dose 50 mg/kg.
For data set [30], the system named is L1210. The data set is described as follows: Antitumor activity against mouse L1210 cells allografted in mouse assessed as increase in survival at 200 mg/kg administered on day 1 followed by 5 injections with 1 day interval relative to control. It is filed as functional.
The test system of data set [31] is L1210. The data set is described as follows: Antitumor activity against mouse L1210 cells allografted in mouse assessed as increase in survival at 100 mg/kg administered on day 1 followed by 5 injections with 1 day interval relative to control. It is filed as functional.
Data set [32] deals with L1210. The data set is described as follows: Antitumor activity against mouse L1210 cells allografted in mouse assessed as increase in survival at 50 mg/kg administered on day 1 followed by 5 injections with 1 day interval relative to control. It is filed as functional.
The subject of data set [33] is L1210. The data set is described as follows: Antitumor activity against mouse L1210 cells allografted in mouse assessed as survival at 180 mg/kg administered on day 1 followed by 9 injections with 1 day interval. It counts as functional, organism-based. Details: dose 180 mg/kg.
Data set [34] relates to L1210. The data set is described as follows: Antitumor activity against mouse L1210 cells allografted in mouse assessed as survival at 109 mg/kg administered on day 1 followed by 9 injections with 1 day interval. It is filed as functional, organism-based. Also on record: dose 109 mg/kg.
The test system of data set [35] is L1210. Put plainly: Antitumor activity against mouse L1210 cells allografted in mouse assessed as survival at 65 mg/kg administered on day 1 followed by 9 injections with 1 day interval. It is filed as functional, organism-based. Also on record: dose 65 mg/kg.
The subject of data set [36] is L1210. The data set is described as follows: Antitumor activity against mouse L1210 cells allografted in mouse assessed as increase in survival at 180 mg/kg administered on day 1 followed by 9 injections with 1 day interval relative to control. It is filed as functional.
Data set [37] deals with L1210. The data set is described as follows: Antitumor activity against mouse L1210 cells allografted in mouse assessed as increase in survival at 109 mg/kg administered on day 1 followed by 9 injections with 1 day interval relative to control. It counts as functional.
The test system of data set [38] is L1210. The data set is described as follows: Antitumor activity against mouse L1210 cells allografted in mouse assessed as increase in survival at 65 mg/kg administered on day 1 followed by 9 injections with 1 day interval relative to control. It is filed as functional.

Structures are written as SMILES. The source made the active and inactive calls. No cut-off for these calls is given here.

The T/C is the result in the treated group divided by that in the control group, in per cent.

Consider `CN(C)/N=N/c1nn(C2CCCCO2)cc1C(N)=O` (configuration not stated), for which the Activity in the data set with Mus musculus [1] was determined as 2.9 g; in the data set on Mus musculus [2], 1 g; in the data set with Mus musculus [3], 0.9 g. Also, the result with L1210 [4], in the data set with L1210 [5] and in the data set with L1210 [6] was Active. Further, the T/C in the data set with L1210 [7] amounted to 119%; with L1210 [8] it was 108%; in the data set on L1210 [9] it was 108%.
Consider `CN(C)/N=N/c1[nH]cnc1C(N)=O` [DACARBAZINE], for which the Activity in the data set with Mus musculus [10] turned out to be 2.2 g; in the data set on Mus musculus [11], 2 g; in the data set with Mus musculus [12], 0.8 g; in the data set on Mus musculus [22] it was 2.6 g; in the data set on Mus musculus [23], 2.1 g. Also, the result in the data set on L1210 [13], with L1210 [14], in the data set on L1210 [15] and in the data set with L1210 [16] was Active. Besides, the T/C in the data set on L1210 [17] worked out at 142%; in the data set with L1210 [18] it was 147%; in the data set on L1210 [19], 157%; in the data set on L1210 [20], 147%; with L1210 [21], 126%.
For the compound `CN(C)/N=N/c1nn(C2CCCO2)cc1C(N)=O` (configuration not stated), the Activity with Mus musculus [24] is given as 3.7 g; in the data set on Mus musculus [25] it was 2.3 g; in the data set with Mus musculus [26] it was 1.8 g. Further, the result in the data set with L1210 [27], in the data set with L1210 [28] and in the data set with L1210 [29] was Active. Besides, the T/C is given as 134% with L1210 [30], 141% in the data set with L1210 [31] and 129% in the data set on L1210 [32].
For the compound `CN(C)/N=N/c1n[nH]cc1C(N)=O`, the result with L1210 [33], in the data set with L1210 [34] and with L1210 [35] was Active. The figures for the T/C in the data set on L1210 [36], in the data set with L1210 [37] and in the data set with L1210 [38] were 134%, 176% and 142%, respectively.
As to `CN(C)/N=N/c1c(C(N)=O)cnn1C1CCCCO1` (configuration not stated), the Activity in the data set with Mus musculus [1] turned out to be 3.5 g; in the data set with Mus musculus [2], 3.1 g; in the data set with Mus musculus [3] it was 2.2 g. In addition, the outcome in the data set with L1210 [4], with L1210 [5] and in the data set with L1210 [6] was Active. For the same compound, the T/C in the data set on L1210 [7] was 123%; in the data set with L1210 [8] it was 117%; in the data set on L1210 [9] it was 107%.

The record behind these values is ChEMBL document CHEMBL3272269, “Synthesis and antileukemic activities of furanyl, pyranyl, and ribosyl derivatives of 4-(3,3-dimethyl-1-triazeno)imidazole-5-carboxamide and 3-(3,3-dimethyl-1-triazeno)pyrazole-4-carboxamide” (J Med Chem, 1979).
